{"source": "PubChem BioAssay (NCI)", "experiment_in_all_cases": "DTP human tumour cell line panel, 384-well format", "key": {"[1]": {"tested_on": "MDA-MB-435 melanoma"}, "[2]": {"tested_on": "CAKI-1 renal"}, "[3]": {"tested_on": "KM12 colon"}, "[4]": {"tested_on": "CCRF-CEM leukemia"}, "[5]": {"tested_on": "HL-60(TB) leukemia"}, "[6]": {"tested_on": "A498 renal"}, "[7]": {"tested_on": "MCF7 breast"}, "[8]": {"tested_on": "786-0 renal"}, "[9]": {"tested_on": "LOX IMVI melanoma"}, "[10]": {"tested_on": "TK-10 renal"}, "[11]": {"tested_on": "NCI/ADR-RES ovarian"}, "[12]": {"tested_on": "NCI-H226 lung"}, "[13]": {"tested_on": "U251 glioblastoma"}, "[14]": {"tested_on": "T-47D breast"}, "[15]": {"tested_on": "SNB-75 CNS"}, "[16]": {"tested_on": "HCT-116 colon"}, "[17]": {"tested_on": "MOLT-4 leukemia"}, "[18]": {"tested_on": "SF-268 CNS"}, "[19]": {"tested_on": "EKVX NSCLC"}, "[20]": {"tested_on": "HCT-15 colon"}, "[21]": {"tested_on": "SK-MEL-5 melanoma"}, "[22]": {"tested_on": "ACHN renal"}, "[23]": {"tested_on": "SN12C renal"}, "[24]": {"tested_on": "RPMI-8226 leukemia"}, "[25]": {"tested_on": "SF-539 CNS"}, "[26]": {"tested_on": "BT-549 breast"}, "[27]": {"tested_on": "M14 melanoma"}, "[28]": {"tested_on": "IGROV1 ovarian"}, "[29]": {"tested_on": "MDA-MB-231 breast"}}, "note": "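The concentration for 50% growth inhibition is given as GI50. TGI denotes the concentration required for complete inhibition of growth.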"}
{"smiles": "CCOC(=O)C(Cc1ccc(CCCC(=O)NCCC(=O)Nc2ccc3nc(C)sc3c2)cc1)C(=O)OCC", "values": [{"measurement": "GI50", "setting": "[1]", "value": 23.5, "unit": "µM"}, {"measurement": "TGI", "setting": "[1]", "value": 41.2, "unit": "µM"}, {"measurement": "GI50", "setting": "[2]", "value": 18.4, "unit": "µM"}, {"measurement": "TGI", "setting": "[2]", "value": 33.1, "unit": "µM"}, {"measurement": "GI50", "setting": "[3]", "value": 18.8, "unit": "µM"}, {"measurement": "TGI", "setting": "[3]", "value": 37.3, "unit": "µM"}, {"measurement": "GI50", "setting": "[4]", "value": 17.5, "unit": "µM"}, {"measurement": "TGI", "setting": "[4]", "value": 31.4, "unit": "µM"}, {"measurement": "GI50", "setting": "[5]", "value": 23, "unit": "µM"}, {"measurement": "TGI", "setting": "[5]", "value": 37.6, "unit": "µM"}, {"measurement": "GI50", "setting": "[6]", "value": 27.7, "unit": "µM"}, {"measurement": "TGI", "setting": "[6]", "value": 64.1, "unit": "µM"}, {"measurement": "GI50", "setting": "[7]", "value": 16.7, "unit": "µM"}, {"measurement": "TGI", "setting": "[7]", "value": 32.5, "unit": "µM"}, {"measurement": "GI50", "setting": "[8]", "value": 26.7, "unit": "µM"}, {"measurement": "TGI", "setting": "[8]", "value": 75, "unit": "µM"}, {"measurement": "GI50", "setting": "[9]", "value": 16.8, "unit": "µM"}, {"measurement": "TGI", "setting": "[9]", "value": 30.8, "unit": "µM"}, {"measurement": "GI50", "setting": "[10]", "value": 30.4, "unit": "µM"}, {"measurement": "TGI", "setting": "[10]", "value": 83.9, "unit": "µM"}, {"measurement": "GI50", "setting": "[11]", "value": 17.9, "unit": "µM"}, {"measurement": "TGI", "setting": "[11]", "value": 31.9, "unit": "µM"}, {"measurement": "GI50", "setting": "[12]", "value": 17.1, "unit": "µM"}, {"measurement": "TGI", "setting": "[12]", "value": 32.1, "unit": "µM"}, {"measurement": "GI50", "setting": "[13]", "value": 37.6, "unit": "µM"}, {"measurement": "TGI", "setting": "[13]", "value": "> 100", "unit": "µM"}, {"measurement": "GI50", "setting": "[14]", "value": 8.21, "unit": "µM"}, {"measurement": "TGI", "setting": "[14]", "value": 20.4, "unit": "µM"}, {"measurement": "GI50", "setting": "[15]", "value": 19.7, "unit": "µM"}, {"measurement": "TGI", "setting": "[15]", "value": 35.8, "unit": "µM"}, {"measurement": "GI50", "setting": "[16]", "value": 25.9, "unit": "µM"}, {"measurement": "TGI", "setting": "[16]", "value": 62.8, "unit": "µM"}, {"measurement": "GI50", "setting": "[17]", "value": 13, "unit": "µM"}, {"measurement": "TGI", "setting": "[17]", "value": 25.7, "unit": "µM"}, {"measurement": "GI50", "setting": "[18]", "value": 17.7, "unit": "µM"}, {"measurement": "TGI", "setting": "[18]", "value": 38.3, "unit": "µM"}, {"measurement": "GI50", "setting": "[19]", "value": 27.7, "unit": "µM"}, {"measurement": "TGI", "setting": "[19]", "value": 69.6, "unit": "µM"}, {"measurement": "GI50", "setting": "[20]", "value": 23.1, "unit": "µM"}, {"measurement": "TGI", "setting": "[20]", "value": 47.9, "unit": "µM"}, {"measurement": "GI50", "setting": "[21]", "value": 14.1, "unit": "µM"}, {"measurement": "TGI", "setting": "[21]", "value": 27.1, "unit": "µM"}, {"measurement": "GI50", "setting": "[22]", "value": 18, "unit": "µM"}, {"measurement": "TGI", "setting": "[22]", "value": 31.9, "unit": "µM"}, {"measurement": "GI50", "setting": "[23]", "value": 24.7, "unit": "µM"}, {"measurement": "TGI", "setting": "[23]", "value": 48.4, "unit": "µM"}, {"measurement": "GI50", "setting": "[24]", "value": 17.7, "unit": "µM"}, {"measurement": "TGI", "setting": "[24]", "value": 31.7, "unit": "µM"}, {"measurement": "GI50", "setting": "[25]", "value": 18.7, "unit": "µM"}, {"measurement": "TGI", "setting": "[25]", "value": 32.8, "unit": "µM"}, {"measurement": "GI50", "setting": "[26]", "value": 19.2, "unit": "µM"}, {"measurement": "TGI", "setting": "[26]", "value": 33.8, "unit": "µM"}, {"measurement": "GI50", "setting": "[27]", "value": 19.3, "unit": "µM"}, {"measurement": "TGI", "setting": "[27]", "value": 37, "unit": "µM"}, {"measurement": "GI50", "setting": "[28]", "value": 26.2, "unit": "µM"}, {"measurement": "TGI", "setting": "[28]", "value": 51.9, "unit": "µM"}, {"measurement": "GI50", "setting": "[29]", "value": 21.1, "unit": "µM"}, {"measurement": "TGI", "setting": "[29]", "value": 48.1, "unit": "µM"}]}
